Source: PubChem BioAssay (NCI)
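All cell lines were grown in 96-well plates and treated with compound for 48 hours. GI50: concentration for 50% inhibition of growth. TGI marks complete inhibition of growth.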

What was measured:
Assay in all cases: NCI-60 cell line screen, 48 h
A498 renal = system: A498 renal
ACHN renal = system: ACHN renal
BT-549 breast = system: BT-549 breast
CCRF-CEM leukemia = system: CCRF-CEM leukemia
COLO 205 colon = system: COLO 205 colon
DU-145 prostate = system: DU-145 prostate
EKVX NSCLC = system: EKVX NSCLC
HCC-2998 colon = system: HCC-2998 colon
HCT-15 colon = system: HCT-15 colon
HL-60(TB) leukemia = system: HL-60(TB) leukemia
HOP-92 NSCLC = system: HOP-92 NSCLC
HS 578T breast = system: HS 578T breast
HT29 colon = system: HT29 colon
IGROV1 ovarian = system: IGROV1 ovarian
K-562 leukemia = system: K-562 leukemia
KM12 colon = system: KM12 colon
M14 melanoma = system: M14 melanoma
MALME-3M melanoma = system: MALME-3M melanoma
MCF7 breast = system: MCF7 breast
MDA-MB-231 breast = system: MDA-MB-231 breast
MDA-MB-435 = system: MDA-MB-435
MOLT-4 leukemia = system: MOLT-4 leukemia
NCI-H226 lung = system: NCI-H226 lung
NCI-H23 lung = system: NCI-H23 lung
NCI-H460 lung = system: NCI-H460 lung
NCI-H522 lung = system: NCI-H522 lung
NCI/ADR-RES ovarian = system: NCI/ADR-RES ovarian
OVCAR-4 ovarian = system: OVCAR-4 ovarian
OVCAR-8 ovarian = system: OVCAR-8 ovarian
PC-3 prostate = system: PC-3 prostate
RPMI-8226 leukemia = system: RPMI-8226 leukemia
RXF 393 renal = system: RXF 393 renal
SF-268 CNS = system: SF-268 CNS
SF-295 CNS = system: SF-295 CNS
SF-539 CNS = system: SF-539 CNS
SK-MEL-2 melanoma = system: SK-MEL-2 melanoma
SK-MEL-28 melanoma = system: SK-MEL-28 melanoma
SK-MEL-5 melanoma = system: SK-MEL-5 melanoma
SK-OV-3 ovarian = system: SK-OV-3 ovarian
SN12C renal = system: SN12C renal
SNB-19 CNS = system: SNB-19 CNS
SNB-75 CNS = system: SNB-75 CNS
SR leukemia = system: SR leukemia
T-47D breast = system: T-47D breast
TK-10 renal = system: TK-10 renal
UACC-257 melanoma = system: UACC-257 melanoma
UACC-62 melanoma = system: UACC-62 melanoma
UO-31 renal = system: UO-31 renal

COc1cc(/C=C/C(=O)c2ccc(F)cc2)ccc1OCCCCCOc1cc2c(cc1OC)C(=O)N1CCCC1C=N2 (centres undefined)
GI50 (A498 renal): 138 nM
TGI (A498 renal): 331 nM
GI50 (ACHN renal): 19.7 nM
TGI (ACHN renal): 368 nM
GI50 (BT-549 breast): 21.4 nM
TGI (BT-549 breast): 97.4 nM
GI50 (CCRF-CEM leukemia): < 10 nM
TGI (CCRF-CEM leukemia): 25.8 nM
GI50 (COLO 205 colon): < 15.1 nM
TGI (COLO 205 colon): 43 nM
GI50 (DU-145 prostate): 24.9 nM
TGI (DU-145 prostate): 57.9 nM
GI50 (EKVX NSCLC): 151 nM
TGI (EKVX NSCLC): 601 nM
GI50 (HCC-2998 colon): < 17.4 nM
TGI (HCC-2998 colon): 38.2 nM
GI50 (HCT-15 colon): 58.8 nM
TGI (HCT-15 colon): 1410 nM
GI50 (HL-60(TB) leukemia): 40.5 nM
GI50 (HOP-92 NSCLC): 158 nM
TGI (HOP-92 NSCLC): 575 nM
GI50 (HS 578T breast): 29.8 nM
TGI (HS 578T breast): 223 nM
GI50 (HT29 colon): < 16 nM
TGI (HT29 colon): 1480 nM
GI50 (IGROV1 ovarian): 64.6 nM
TGI (IGROV1 ovarian): 11300 nM
GI50 (K-562 leukemia): 30.6 nM
GI50 (KM12 colon): 14.7 nM
TGI (KM12 colon): 50.1 nM
GI50 (M14 melanoma): 49.1 nM
TGI (M14 melanoma): 266 nM
GI50 (MALME-3M melanoma): 212 nM
TGI (MALME-3M melanoma): 439 nM
GI50 (MCF7 breast): < 10 nM
TGI (MCF7 breast): 39.5 nM
GI50 (MDA-MB-231 breast): 282 nM
TGI (MDA-MB-231 breast): 1960 nM
GI50 (MDA-MB-435): 33.9 nM
TGI (MDA-MB-435): 145 nM
GI50 (MOLT-4 leukemia): < 10 nM
TGI (MOLT-4 leukemia): 41.8 nM
GI50 (NCI-H226 lung): 49.3 nM
TGI (NCI-H226 lung): 1070 nM
GI50 (NCI-H23 lung): 18.6 nM
TGI (NCI-H23 lung): 66.2 nM
GI50 (NCI-H460 lung): < 10 nM
TGI (NCI-H460 lung): 17.9 nM
GI50 (NCI-H522 lung): 31.8 nM
TGI (NCI-H522 lung): 249 nM
GI50 (NCI/ADR-RES ovarian): 239 nM
TGI (NCI/ADR-RES ovarian): 2470 nM
GI50 (OVCAR-4 ovarian): 26.5 nM
TGI (OVCAR-4 ovarian): > 100000 nM
GI50 (OVCAR-8 ovarian): 25.3 nM
TGI (OVCAR-8 ovarian): 3280 nM
GI50 (PC-3 prostate): 20.8 nM
TGI (PC-3 prostate): 215 nM
GI50 (RPMI-8226 leukemia): 10.1 nM
TGI (RPMI-8226 leukemia): 38.3 nM
GI50 (RXF 393 renal): 110 nM
TGI (RXF 393 renal): 283 nM
GI50 (SF-268 CNS): 17.7 nM
TGI (SF-268 CNS): 61.3 nM
GI50 (SF-295 CNS): < 10 nM
TGI (SF-295 CNS): < 10.8 nM
GI50 (SF-539 CNS): < 16.6 nM
TGI (SF-539 CNS): 30.1 nM
GI50 (SK-MEL-2 melanoma): 62 nM
TGI (SK-MEL-2 melanoma): 1510 nM
GI50 (SK-MEL-28 melanoma): 194 nM
TGI (SK-MEL-28 melanoma): 473 nM
GI50 (SK-MEL-5 melanoma): 89.6 nM
TGI (SK-MEL-5 melanoma): 230 nM
GI50 (SK-OV-3 ovarian): 212 nM
TGI (SK-OV-3 ovarian): 6060 nM
GI50 (SN12C renal): 33.5 nM
TGI (SN12C renal): 2370 nM
GI50 (SNB-19 CNS): < 22.3 nM
TGI (SNB-19 CNS): 3350 nM
GI50 (SNB-75 CNS): 34 nM
TGI (SNB-75 CNS): 187 nM
GI50 (SR leukemia): < 10 nM
TGI (SR leukemia): < 11.3 nM
GI50 (T-47D breast): 23.1 nM
TGI (T-47D breast): 1190 nM
GI50 (TK-10 renal): 123 nM
TGI (TK-10 renal): 981 nM
GI50 (UACC-257 melanoma): 238 nM
TGI (UACC-257 melanoma): 1170 nM
GI50 (UACC-62 melanoma): 58.2 nM
TGI (UACC-62 melanoma): 222 nM
GI50 (UO-31 renal): 47.3 nM
TGI (UO-31 renal): 3640 nM
